Data taken from patent US5422350A, “Nitrogen substituted acridine and cytochrome P450 inhibitors and methods of use” (priority 1992, dated 1995).
Read-outs that look alike come from different tables or passages of the source.

How the values were obtained:
[1] = tested on: P450 1A2; assay: in vitro; conditions: for 1-hydroxytacrine equivalents irreversibly bound to 1 mg microsomal protein: 1-hydroxytacrine 0.5 μM
Procedure: (§1) PHARMACOL., Vol. 42, pp. 767-772 (1990) was conducted. […] The effect of various enoxacin concentrations (8, 20, and 50 μM) on the extent of irreversible binding was examined in a separate study.

[2] = Single-dose pharmacokinetic and metabolic disposition study of [14C]tacrine HCl in human male volunteers; type: in vivo; conditions: for mean AUC(O-tldc), dose proportionality: 10 and 40 mg oral, plasma
Procedure: Plasma and red blood cells (RBC) were collected predose and for 48 hours postdose. Urine and feces were collected predose and for 96 hours postdose. Urine and plasma samples were analyzed directly by liquid scintillation spectrometry while RBC and fecal samples were solubilized prior to counting. […] Metabolic profiling of urine was performed by HPLC radioactivity detection. Metabolites were identified by HPLC/photodiode array/mass spectrometry.

[3] = Clinical drug interaction study, tacrine with cimetidine; type: in vivo, human; conditions: 40 mg tacrine with 300-mg four times a day cimetidine vs tacrine alone
Source text: A. Somogyi and M. Muirhead, "Pharmacokinetic Interactions of Cimetidine", CLIN. PHARMACOKIN., Vol. 12, pp. 321-366 (1987).

[4] = Irreversible protein binding of 14C-tacrine-derived radioactivity, human liver microsomes; conditions: for effect on irreversible protein binding / Tacrine equivalents irreversibly bound to 1 mg microsomal protein: Human Prep B, 60 min; for Tacrine equivalents irreversibly bound to 1 mg microsomal protein: N = 3
Procedure: (§2) Total reaction volume was 3 mL. Reactions were stopped by freezing in liquid nitrogen or dry-ice acetone. […] D. J. Waxman and L. Axaroff, "Phenobarbital induction of cytochrome P-450 Gene Expression", BIOCHEM J, Vol. 281, pp. 577-592 (1992); P. Soucek and I. Gut, supra.
(§3) C. N. Martin and R. C. Garner: "Covalent Binding In Vitro and In Vivo" in BIOCHEMICAL TOXICOLOGY: A PRACTICAL APPROACH, Eds. K. Snell and B. Mullock, IRL, Wash. D.C. pp. 109-126 (1987).

[5] = tested on: ethoxyresorufin O-deethylase; conditions: rat liver microsomes, Back et al. (1983); cited from earlier work
[6] = tested on: P450 1A2; conditions: cited from earlier work
[7] = molecular target: T1, P450 1A2 (Homo sapiens, UniProt P05177); assay: in vitro
T1 sequence (P05177 2-516 limits assumed): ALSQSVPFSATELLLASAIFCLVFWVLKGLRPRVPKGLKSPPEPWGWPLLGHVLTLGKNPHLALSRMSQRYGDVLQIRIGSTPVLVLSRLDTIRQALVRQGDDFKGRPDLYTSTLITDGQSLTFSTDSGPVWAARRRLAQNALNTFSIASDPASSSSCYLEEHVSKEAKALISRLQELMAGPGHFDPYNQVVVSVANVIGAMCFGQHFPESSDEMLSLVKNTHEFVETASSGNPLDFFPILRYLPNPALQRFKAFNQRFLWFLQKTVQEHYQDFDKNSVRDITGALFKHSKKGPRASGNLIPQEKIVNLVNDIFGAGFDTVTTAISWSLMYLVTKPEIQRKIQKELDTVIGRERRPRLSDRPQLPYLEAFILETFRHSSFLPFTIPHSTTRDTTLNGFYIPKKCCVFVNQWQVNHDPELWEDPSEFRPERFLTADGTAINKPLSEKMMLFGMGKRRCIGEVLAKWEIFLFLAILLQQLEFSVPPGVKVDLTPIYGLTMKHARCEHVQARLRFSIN
Procedure: as §1

[8] = tested on: hepatocytes from MC induced male rats; assay: Irreversible binding of 14C-tacrine and 14C-1-hydroxytacrine in MC induced rat hepatocytes; type: in vitro ADME; conditions: for inhibition of irreversible binding for both tacrine and 1-hydroxytacrine: relative ranking
[9] = Irreversible protein binding of 14C-tacrine-derived radioactivity, rat liver microsomes; conditions: for effect on irreversible protein binding / Tacrine equivalents irreversibly bound to 1 mg microsomal protein: MC induced Rat, 60 min; for Tacrine equivalents irreversibly bound to 1 mg microsomal protein: N = 3; for effect of pretreatment on binding: rat
Procedure: as §2, §3

[10] = In vitro metabolism of 14C-tacrine in rat liver microsomes; conditions: microsomes from pretreated rats vs control
Procedure: as §2

[11] = tested on: P450 2D6; conditions: cited from earlier work
[12] = Clinical interaction, theophylline with tacrine; type: in vivo, human; conditions: single 158-mg theophylline with repeated 20-mg tacrine
Source text: M. E. Campbell, D. M. Grant, T. Inaba, and W. Kalow, "Biotransformation of Caffeine, Paraxanthine, Theophylline, and Theobromine by polycyclic Aromatic Hydrocarbon-Inducible Cytochrome(s) P-450 in Human Liver Microsomes", DRUG METAB. DISPOS. Vol. 15, pp. 237-249 (1987). Therefore, a potential explanation for the theophylline-tacrine clinical interaction is competition for the same P450 1A2 enzymes.

[13] = 20 min, read-out: inhibition of 1-hydroxytacrine irreversible binding
[14] = 20 min, read-out: inhibition of tacrine irreversible binding
[15] = 1-hydroxytacrine 10 uM + inhibitor 50 uM
[16] = tacrine 10 uM + inhibitor 50 uM

Molecule: Nc1c2c(nc3ccccc13)CCCC2O (stereo not shown) [1-Hydroxytacrine, 1-hydroxytacrine]
- irreversible binding to human microsomal protein ([1]; 1-hydroxytacrine): found to bind irreversibly
- 1-hydroxytacrine equivalents irreversibly bound to 1 mg microsomal protein ([1]; enoxacin 0.0, 20 min): 0.018 ± 0.001
- irreversible binding of derived radioactivity to microsomal protein ([1]; Table 6, deletion of NADPH): no irreversible
- mean AUC(O-tldc), dose proportionality [2]: increased greater than dose proportionally
- elimination rate from plasma ([2]; all volunteers): appeared to be limited by the rate of formation
- excretion and 1-hydroxytacrine plasma concentrations in cigarette smokers ([2]; smokers compared to nonsmokers): decreased excretion and lower 1-hydroxytacrine plasma concentrations
- higher plasma concentrations [3]: approximately 40%

Molecule: Nc1c2c(nc3ccccc13)CCC(O)C2 (stereo not shown) [2-hydroxytacrine]
- mean AUC(O-tldc), dose proportionality [2]: increased greater than dose proportionally

Molecule: Nc1c2c(nc3ccc(O)cc13)CCCC2 [7-Hydroxytacrine, 7-hydroxytacrine]
- levels over time ([4]; time course through 1 hour): levels rise then fall over time

Molecule: CCN(CC)CCCC(C)Nc1ccnc2cc(Cl)ccc12 (stereo not shown) [Chloroquine, 7-chloro-4-(4-diethylamino-1-methylbutylamino)quinoline]
- inhibition of ethoxyresorufin O-deethylase activity [5]: inhibitors of ethoxyresorufin O-deethylase activity

Molecule: CN/C(=N/CCSCc1nc[nH]c1C)NC#N [Cimetidine, N-cyano-N'-methyl-N"-[2[[(5-methyl-1H-imidazol-4-yl)methyl]thio]ethyl]guanidine]
- inhibition of P450 enzymes including P450 1A2 [6]: inhibitor of P450 enzymes including P450 1A2

Molecule: CCn1cc(C(=O)O)c(=O)c2cc(F)c(N3CCNCC3)nc21 [Enoxacin]
- 1-hydroxytacrine equivalents irreversibly bound to 1 mg microsomal protein ([1]; enoxacin 8.0, 20 min): 0.017 ± 0.001
- 1-hydroxytacrine equivalents irreversibly bound to 1 mg microsomal protein ([1]; enoxacin 20.0, 20 min): 0.014 ± 0.001
- 1-hydroxytacrine equivalents irreversibly bound to 1 mg microsomal protein ([1]; enoxacin 50.0, 20 min): 0.009 ± 0.001
- Tacrine equivalents irreversibly bound to 1 mg microsomal protein ([1]; Table 6, tacrine 0.3 μM, line below enoxacin 50.0 (concentration not given), 20 min): 0.023 ± 0.002
- Tacrine equivalents irreversibly bound to 1 mg microsomal protein ([1]; Table 6, tacrine 0.3 μM, line of enoxacin 20.0, 20 min): 0.036 ± 0.008
- Tacrine equivalents irreversibly bound to 1 mg microsomal protein ([1]; Table 6, tacrine 0.3 μM, line of enoxacin 50.0, 20 min): 0.028 ± 0.001
- Tacrine equivalents irreversibly bound to 1 mg microsomal protein ([1]; tacrine 0.5 μM + enoxacin 50 μM, 5 min): 0.009 ± 0.002 nmol
- Tacrine equivalents irreversibly bound to 1 mg microsomal protein ([1]; tacrine 0.5 μM + enoxacin 50 μM, 10 min): 0.017 ± 0.003 nmol
- Tacrine equivalents irreversibly bound to 1 mg microsomal protein ([1]; tacrine 0.5 μM + enoxacin 50 μM, 20 min): 0.026 ± 0.002 nmol
- Tacrine equivalents irreversibly bound to 1 mg microsomal protein ([1]; tacrine 0.5 μM + enoxacin 50 μM, 45 min): 0.052 ± 0.006 nmol
- inhibition of tacrine irreversible binding and biotransformation ([7]; 50 μM enoxacin vs 8, 20 μM): greatest inhibition
- inhibition at 8 µM [7, 13]: 8.2%
- inhibition at 20 µM [7, 13]: 22.2%
- inhibition at 50 µM [7, 13]: 51.7%
- inhibition at 8 µM [7, 14]: 14.4%
- inhibition at 20 µM [7, 14]: 29.8%
- inhibition at 50 µM [7, 14]: 43.4%
- effect on the binding of 1-hydroxytacrine ([7]; enoxacin 8, 20, 50 μM): inhibitory effect
- inhibition at 50 µM ([7]; read-out: inhibition of extent of irreversible binding (maximum)): ≤ 73%
- P450 1A2 inhibition [6]: selective inhibitor of P450 1A2
- irreversible binding of 1-hydroxytacrine-derived radioactivity, Percent Control Value [8, 15]: 79.8%
- inhibition of irreversible binding for both tacrine and 1-hydroxytacrine [8]: less of an effect
- irreversible binding of tacrine-derived radioactivity, Percent Control Value [8, 16]: 78.9%

Molecule: CCn1cnc(C(=O)NC)c1C(=O)NC [Ethimizol]
- irreversible binding of 1-hydroxytacrine-derived radioactivity, Percent Control Value [8, 15]: 65.6%
- inhibition of irreversible binding for both tacrine and 1-hydroxytacrine [8]: less of an effect
- irreversible binding of tacrine-derived radioactivity, Percent Control Value [8, 16]: 80.1%

Molecule: Cc1nc2c([nH]1)c(=O)n(C)c(=O)n2Cc1ccco1 [Furafylline, 1H-purine-2,6-dione, 3-(2-furanylmethyl)-3,7-dihydro-1,8-dimethyl]
- irreversible binding of 1-hydroxytacrine-derived radioactivity, Percent Control Value [8, 15]: 31.7%
- inhibition of irreversible binding for both tacrine and 1-hydroxytacrine [8]: most effective inhibitor
- irreversible binding of tacrine-derived radioactivity, Percent Control Value [8, 16]: 31.6%

Molecule: N[C@@H](CCC(=O)N[C@@H](CS)C(=O)NCC(=O)O)C(=O)O [Glutathione]
- irreversible binding of 1-hydroxytacrine-derived radioactivity, Percent Control Value ([8]; 1-hydroxytacrine 10 uM + glutathione 5 mM): 49.1%
- irreversible binding of tacrine-derived radioactivity, Percent Control Value ([8]; tacrine 10 uM + glutathione 5 mM): 62.6%
- effect on irreversible protein binding ([9]; with GSH (5 mM)): 58.3
- Tacrine equivalents irreversibly bound to 1 mg microsomal protein ([9]; with GSH (5 mM)): 0.058 ± 0.005 nmol
- detectable adducts with the reactive intermediate [4]: failed to produce detectable adducts
- effect on irreversible binding [4]: dramatic reduction in irreversible binding
- effect on irreversible protein binding ([4]; with GSH (5 mM)): 85.0
- Tacrine equivalents irreversibly bound to 1 mg microsomal protein ([4]; with GSH (5 mM)): 0.031 ± 0.001 nmol

Molecule: NNC(=O)c1ccncc1 [Isoniazid]
- effect of pretreatment (induction) on 1-hydroxytacrine formation [10]: markedly increased 1-hydroxytacrine formation
- effect of pretreatment on binding [9]: little or no effect on binding

Molecule: Cc1ccc2cc3c(ccc4ccccc43)c3c2c1CC3 [MC, 3-methylcholanthrene]
- effect of pretreatment (induction) on 1-hydroxytacrine formation [10]: Less 1-hydroxytacrine was observed
- increase in binding compared to control rat ([9]; MC induced rat): ~3 fold

Molecule: CCC1(c2ccccc2)C(=O)NC(=O)NC1=O [Phenobarbital]
- effect of pretreatment (induction) on 1-hydroxytacrine formation [10]: only a minimal effect on 1-hydroxytacrine formation
- effect of pretreatment on binding [9]: little or no effect on binding

Molecule: COc1cc(NC(C)CCCN)c2ncccc2c1 (stereo not shown) [Primaquine, 8-(4-amino-1-methylbutylamino)-6-methoxyquinoline]
- inhibition of ethoxyresorufin O-deethylase activity [5]: inhibitors of ethoxyresorufin O-deethylase activity

Molecule: C=C[C@H]1C[N@@]2CC[C@H]1C[C@@H]2[C@@H](O)c1ccnc2ccc(OC)cc12 [Quinidine]
- P450 2D6 inhibition [11]: inhibitor of P450 2D6

Molecule: Cn1c(=O)c2[nH]cnc2n(C)c1=O [Theophylline]
- increase in theophylline elimination half-life [12]: two-fold
- major route of clearance [6]: metabolism by P450 1A2

B1: EH: human liver expoxide hydrase (EH) (protein, UniProt P07099 1-455, looked up)
Epoxide hydrolase 1: MWLEILLTSVLGFAIYWFISRDKEETLPLEDGWWGPGTRSAAREDDSIRPFKVETSDEEIHDLHQRIDKFRFTPPLEDSCFHYGFNSNYLKKVISYWRNEFDWKKQVEILNRYPHFKTKIEGLDIHFIHVKPPQLPAGHTPKPLLMVHGWPGSFYEFYKIIPLLTDPKNHGLSDEHVFEVICPSIPGYGFSEASSKKGFNSVATARIFYKLMLRLGFQEFYIQGGDWGSLICTNMAQLVPSHVKGLHLNMALVLSNFSTLTLLLGQRFGRFLGLTERDVELLYPVKEKVFYSLMRESGYMHIQCTKPDTVGSALNDSPVGLAAYILEKFSTWTNTEFRYLEDGGLERKFSLDDLLTNVMLYWTTGTIISSQRFYKENLGQGWMTQKHERMKVYVPTGFSAFPFELLHTPEKWVRFKYPKLISYSYMVRGGHFAAFEEPELLAQDIRKFLSVLERQ
- effect on irreversible protein binding ([9]; with EH (100 ug)): 16.6
- Tacrine equivalents irreversibly bound to 1 mg microsomal protein ([9]; with EH (100 ug)): 0.116 ± 0.007 nmol
- detectable adducts with the reactive intermediate [4]: failed to produce detectable adducts
- effect on irreversible binding ([4]; 14C tacrine incubations (Table 3, human and rat)): only a slight decrease in binding
- effect on irreversible protein binding ([4]; with EH (100 ug)): 35.3
- Tacrine equivalents irreversibly bound to 1 mg microsomal protein ([4]; with EH (100 ug)): 0.134 ± 0.026 nmol
